# Where two headings read alike, the source gives them in different places.
# Experiments:
# F plasmid TraI N300 = molecular target: T1, F plasmid TraI N300 (Escherichia coli, UniProt P14565); assay: Fluorescence kinetic assay of oriT DNA cleavage and crossover by TraI N300; assay type: biochemical, E. coli
# T1 construct: An amino-terminal 300 residue F plasmid TraI construct; made in house; host or cells: E. coli BL21 (DE3)/pLysS or HMS174 (DE3)/pLysS, vector pTYB2
# Experimental: Reaction Buffer: 6.42 mM MgCl2, 20.5% glycerol, 153.9 mM NaCl, and 51.3 mM Tris-HCl pH 7.5. Streptavidin Wash Buffer (Tris buffered saline, TBS/Tween): and 150 mM NaCl, 25 mM Tris-HCl pH 7.5, and 0.05% Tween-20. Stopping Buffer: 1.2% sodium-dodecyl sulfate (SDS), and 300 mM EDTA pH 10. TE Buffer: 1 mM EDTA, and 10 mM Tris-HCl pH 7.4. Fluorescence Buffer: 80% glycerol, 200 mM Tris-HCl pH 8.0. Short-term N300 stock (for storage at −20° C.): 50% Reaction Buffer, 49.8% glycerol, 0.2% long-term protein solution (84.6 nM final N300 concentration). All 5× stocks except Probe stocks were diluted in Reaction Buffer. 5× Enzyme Stock: 8.4 mL short-term N300 stock diluted to 2.02 nM N300. 5× Inhibitor Stocks: imidodiphosphate (pNp) at 0-50 nM in Reaction Buffer. 5× Substrate Stocks: oligonucleotides b29 and PCb31eco diluted to […] each, by 3-fold serial dilutions. 5× Probe Stocks: […] (1.2-fold molar excess) oligonucleotide downF in TE Buffer. All reactions and procedures involving downF were assembled or performed in darkened conditions. Solutions and microtiter plates containing downF were kept in foil-lined containers at all times to prevent photobleaching.
# Two oriT derived oligonucleotides, b29 and PCb31eco, were designed for binding and cleavage by TraI based on past studies (see Oligonucleotides section herein; FIG. 4A). The overall method is modified from those described previously for the study of TraI and R388TrwC (Byrd et al., 2002; Grandoso et al., 2000; Matson and Morton, 1991). Reactions were assembled from 16 μL of 5× Substrate Stock, 16 μL of 5× Inhibitor Stock, and 32 μL of Reaction Buffer. 80 μL reactions were initiated with 16 μL of 5× Enzyme Stock and raised to 37° C. 10 μL samples were removed at eight time points (optimized to define timecourses) and stopped in 10 μL of Stopping Buffer at room temperature. Stopped reactions were placed on a 100° C. heat block for one minute, spiked with 2 μL of 5× Probe Stock while still hot, and incubated at 37° C. for 10 minutes (see Kinetic Assay Formulations for probe handling).
# Samples were diluted to […] with Streptavidin Wash Buffer and transferred to Biobind Assembly streptavidin-coated microtiter plates (Thermo Electron Corporation, Waltham, Mass., U.S.A.) and incubated at 37° C. for 45 minutes. Plates were washed with at least 5-fold excess Streptavidin Wash Buffer (in an inverted position to prevent excess biotinylated species from transferring between wells). Wells were filled with 65 μL of Fluorescence Buffer for optimum 6-FAM™ fluorescence. Plates were read in a FLUOSTAR OPTIMA™ (BMG Labtech, Offenburg, Germany) with a 490 nm excitation and 520 nm emission filters (10 nm bandpass) with the gain optimized for maximum signal. The timecourses thus collected were designated Cleavage Courses. Plates were removed and irradiated with 306 nm ultraviolet radiation for 10 minutes to cleave the PC biotin linker. They were then washed inverted with at least 5-fold excess Streptavidin Wash Buffer, filled with 65 μL of Fluorescence Buffer, and again read as above. These timecourses were designated Cleavage+Crossover Courses (FIG. 4A).
# All timecourses were fitted by nonlinear regression with un-weighted least-squares methods using SIGMAPLOT™ 8.0 (SYSTAT Software, Inc., Point Richmond, Calif., U.S.A.) (also used for graph construction). Timecourses with blanked signals in arbitrary fluorescence units were scaled by curve mean in groups of at least four replicates, culled for outliers, and averaged by time point. On average, one replicate time point was culled from each group of four used. The averaged curves were fitted to a simple, three-parameter exponential decay equation (Equation 1), time versus signal, and converted into units of concentration.
# where t is time in seconds, y0+a is the initial signal, b is a constant that determines the shape of the curve. […]
# F+ or F− cells = assay: 24 hr. MIC bounds (turbid/clear wells); assay type: cell-based, E. coli; settings: Escherichia coli, 8x serial dilutions, bounds identical for F+ or F− cells
# T1 sequence (P14565 1-306): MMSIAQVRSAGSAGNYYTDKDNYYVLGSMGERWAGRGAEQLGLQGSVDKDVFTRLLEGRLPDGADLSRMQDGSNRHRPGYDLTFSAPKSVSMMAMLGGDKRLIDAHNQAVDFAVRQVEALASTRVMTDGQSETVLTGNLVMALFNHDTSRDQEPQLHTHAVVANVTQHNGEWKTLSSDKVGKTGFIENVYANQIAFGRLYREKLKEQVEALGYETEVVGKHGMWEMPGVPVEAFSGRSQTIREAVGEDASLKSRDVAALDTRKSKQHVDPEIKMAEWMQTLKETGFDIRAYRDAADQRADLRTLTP
compound,measurement,setting,value
"O=P(O)(O)NP(=O)(O)O [pNp, imidodiphosphate]",Ki,"F plasmid TraI N300; Cleavage, C-B/E Direct Linear Plot, read-out: Kic",2.42 nM
same,Ki,"F plasmid TraI N300; Cleavage, C-B/E Direct Linear Plot, read-out: Kiu",2.65 nM
same,Ki,"F plasmid TraI N300; Cleavage, M/M Nonlinear Regression, competitive inhibition constant, apparent, read-out: Kic",2.3 ± 0.26 nM
same,Ki,"F plasmid TraI N300; Cleavage, M/M Nonlinear Regression, uncompetitive inhibition constant, apparent, read-out: Kiu",3.17 ± 0.32 nM
same,Ki,"F plasmid TraI N300; Crossover, C-B/E Direct linear Plot, read-out: Kic",1.59 nM
same,Ki,"F plasmid TraI N300; Crossover, C-B/E Direct linear Plot, read-out: Kiu",3.24 nM
same,Ki,"F plasmid TraI N300; Crossover, M/M Nonlinear Regression, read-out: Kic",0.885 ± 0.543 nM
same,Ki,"F plasmid TraI N300; DNA cleavage, read-out: inhibition constants (Ki values) for both competitive and uncompetitive modes (Kic and Kiu)",2.5 to 3 nM
same,Ki,"F plasmid TraI N300; DNA crossover, read-out: Kic",0.9 to 1.6 nM
same,Ki,"F plasmid TraI N300; DNA crossover, read-out: Kiu",3.2 nM
same,MIC,"F+ or F− cells; clear wells after 24 hr. incubation, read-out: 24 hr. MIC bounds, upper",100 mM
same,MIC,"F+ or F− cells; turbid wells after 24 hr. incubation, read-out: 24 hr. MIC bounds, lower",12.5 mM
